# Laboratory results published in patent US11015223B2, “Methods for determining response to a hypomethylating agent” (THE REGENTS OF THE UNIVERSITY OF CALIFORNIA, priority 2013, dated 2021).
# “And” between values parts separate entries of the source, which are not always exact repeats. Identical values can stand only once.
# Experiments:
# [1] = system: MDS patients; test: Response to treatment by IWG response criteria revised in 2006 (CR/PR/HI = responders); type: in vivo, human
# Text: A total of 213 MDS patients treated azacitidine or decitabine were included in this study. Samples were obtained from patients treated at the Dana-Farber Cancer Institute (n=42), the MD Anderson Cancer Center (n=104), and as part of the DACO-020 (ADOPT) clinical trial of decitabine (n=67). All samples were collected with patient consent under IRB-approved protocols in accordance with the Declaration of Helsinki. There were no significant differences in baseline patient characteristics by treatment site (Table 1).
# Response to treatment was assessed using IWG response criteria revised in 2006. Patients with either a complete response (CR), partial response (PR), or hematologic improvement (HI) were considered as ‘responders’ (R, n=100, 47%). whereas patients described as having ‘no response’, ‘stable disease’, ‘progressive disease’, ‘death’ before response assessment, or ‘not evaluable’ were considered ‘non-responders’ (NR, […], 53%).
# Categorical variables were compared using a Fisher exact test, while continuous variables were compared using a Wilcoxon rank-sum test. A Cochran-Mantel-Haenszel (CMH) test was used to test for differences in response rate by mutational status controlling for treatment. Unadjusted and adjusted logistic regression models were used to predict response to therapy. A stepwise algorithm for logistic regression was also utilized to determine a final model; candidate variables considered for inclusion were all mutations, treatment, IPSS classification, age, and sex. The Hosmer and Lemeshow goodness-of-fit test was used to assess model fit for logistic regression models. Overall survival was calculated from the time of treatment to the time of death from any cause or was censored at the date last known alive. Unadjusted and adjusted Cox regression models were constructed for overall survival. A stepwise regression algorithm for Cox regression models was used including the same candidate variables as in the logistic regression modeling. Classification trees were also created using the Rpart package in R version 2.11.1 to classify responders based on mutational status. Cross-validation was used for tree pruning. All p-values reported are two-sided and considered significant at the 0.05 level. No adjustments were made for multiple hypothesis testing.
# [2] = Peripheral blood CBC of recipient mice in competitive murine bone marrow transplant; type: in vivo
# Method: (§1) Age-matched Tet2^−/−; Mx-Cre^+ and Tet2^+/+; Mx-Cre^+ donor animals (CD45.2) were treated with pIpC (15 μg/g IP) for three non-consecutive days to induce excision of exon 3 of Tet2. Donor bone marrow was harvested two weeks post-pIpC and mixed in a 1:2 ratio with bone marrow harvested from 45.1 WT donors (B6.SJL-Ptprca Pepcb/BoyJ; Jackson), and was then transplanted into 45.1 recipients for a total of 1 million cells/recipient. Peripheral blood engraftment was assessed by FACS at two weeks post-transplant, at which point recipient mice were divided into treatment groups (n=7 per group) and treated with either 5-azacitidine (aza; 2.5 mg/kg IP; Santa Cruz Biotechnology) or vehicle control on the following schedule: two weeks on, two weeks off. Peripheral blood chimerism and CBC were assessed following each round of treatment. Percent 45.2 chimerism was calculated for each time point. Error bars indicate standard error of the mean (SEM) for each group, and p-values for the last time point were calculated using an unpaired two-sample t-test.
# The observed association between TET2 mutations and response to treatment could be mediated directly by TET2 loss-of-function or by indirect or cell extrinsic effects. To test whether TET2 loss-of-function can sensitize cells to hypomethylating agents, we performed a competitive murine bone marrow transplant experiment using hematopoietic cells from Tet2-null and wildtype littermate donors. […] There was no difference in pretreatment peripheral blood counts between groups. Treatment with AZA (2.5 mg/kg M-F×2 weeks) or vehicle was begun on day 20 post-transplant and repeated starting on day 48.
# [3] = system: MDS patients; conditions: cited from earlier work
# [4] = system: Tet2-null cells; test: Competitive murine bone marrow transplant, percent 45.2 chimerism in peripheral blood; type: in vivo
# Method: as §1
# The observed association between TET2 mutations and response to treatment could be mediated directly by TET2 loss-of-function or by indirect or cell extrinsic effects. […]
# [5] = 2.5 mg/kg M-F x 2 weeks, regardless of genotype, vs vehicle
# [6] = murine bone marrow transplant experiment
compound,measurement,setting,value
"Nc1ncn([C@@H]2O[C@H](CO)[C@@H](O)[C@H]2O)c(=O)n1 [azacitidine, 5-azacytidine]",Non-Responders (NR/SD/PD/Died/NE) (%),[1]; all patients on the treatment,(52) %
same,Non-Responders (NR/SD/PD/Died/NE) N,[1]; all patients on the treatment,22 N
same,Responders (CR/PR/HI) N,[1]; all patients on the treatment,20 N
same,Responders (CR/PR/HI) (%),"[1]; all patients on the treatment, listed as Azacitidine Alone",(48) %
same,Response N,[1]; patients with ASXL1 mutation,11 N
same,Response N,"[1]; patients with ATRX mutation, listed as Aza Alone",0 (0) N and 0 N
same,Response N,[1]; patients with BCOR mutation,2 N
same,Response N,[1]; patients with CBL mutation,1 N
same,Response N,[1]; patients with DNMT3A mutation,3 N
same,Response N,[1]; patients with ETV6 mutation,2 N
same,Response N,[1]; patients with EZH2 mutation,3 N
same,Response N,[1]; patients with IDH1 mutation,1 N
same,Response N,[1]; patients with IDH2 mutation,2 N
same,Response N,[1]; patients with JAK2 mutation,2 N
same,Response N,"[1]; patients with KDM3A mutation, listed as Aza Alone",0 (0) N and 0 N
same,Response N,[1]; patients with KDM6B mutation,1 N
same,Response N,[1]; patients with KRAS mutation,1 N
same,Response N,"[1]; patients with MAML1 mutation, listed as Aza Alone",0 (0) N and 0 N
same,Response N,[1]; patients with NF1 mutation,2 N
same,Response N,[1]; patients with NOTCH1 mutation,2 N
same,Response N,[1]; patients with NOTCH2 mutation,2 N
same,Response N,"[1]; patients with NPM1 mutation, listed as Aza Alone",0 (0) N and 0 N
same,Response N,[1]; patients with NRAS mutation,3 N
same,Response N,[1]; patients with PHF6 mutation,1 N
same,Response N,[1]; patients with PRPF8 mutation,1 N
same,Response N,"[1]; patients with PTPN11 mutation, listed as Aza Alone",0 (0) N and 0 N
same,Response N,[1]; patients with RUNX1 mutation,3 N
same,Response N,[1]; patients with SCAF11 mutation,1 N
same,Response N,[1]; patients with SF3B1 mutation,3 N
same,Response N,[1]; patients with SRSF2 mutation,3 N
same,Response N,[1]; patients with TET2 mutation,6 N
same,Response N,"[1]; patients with TLR1 mutation, listed as Aza Alone",0 (0) N and 0 N
same,Response N,[1]; patients with TP53 mutation,6 N
same,Response N,[1]; patients with U2AF1 mutation,4 N
same,Response N,[1]; patients with ZRSR2 mutation,1 N
same,WBC levels,[2]; [5],significant decreases
same,hematocrit,[2]; [5],significant decreases
same,total number of mature granulocytes,[2]; [6],increasing
same,MDS patients with TET2 mutations who responded to treatment,[3]; TET2 mutations detected by Sanger sequencing,11 of 13
same,response rate,[3]; overall cohort of 86 patients,52%
same,level of representation in peripheral blood,"[4]; Tet2-null cells, after two cycles, 2.5 mg/kg IP",significantly decreased level of representation
same,clonal advantage associated with loss of Tet2 function,[4]; [6],preferentially decreased
